This note sets out measurements from patent US20260374782A1, “NEW COMPOUNDS, PROCESSES FOR PREPARING THE SAME AND THEIR USE AS DRUGS” (B&A ONCOMEDICAL, priority 2022, published 2026).

The target of the test is T1, NKCC1 (Homo sapiens, UniProt P55011).
T1 construct: endogenous in cells; host or cells: native HEK293 cells
T1 sequence (P55011 1-1212): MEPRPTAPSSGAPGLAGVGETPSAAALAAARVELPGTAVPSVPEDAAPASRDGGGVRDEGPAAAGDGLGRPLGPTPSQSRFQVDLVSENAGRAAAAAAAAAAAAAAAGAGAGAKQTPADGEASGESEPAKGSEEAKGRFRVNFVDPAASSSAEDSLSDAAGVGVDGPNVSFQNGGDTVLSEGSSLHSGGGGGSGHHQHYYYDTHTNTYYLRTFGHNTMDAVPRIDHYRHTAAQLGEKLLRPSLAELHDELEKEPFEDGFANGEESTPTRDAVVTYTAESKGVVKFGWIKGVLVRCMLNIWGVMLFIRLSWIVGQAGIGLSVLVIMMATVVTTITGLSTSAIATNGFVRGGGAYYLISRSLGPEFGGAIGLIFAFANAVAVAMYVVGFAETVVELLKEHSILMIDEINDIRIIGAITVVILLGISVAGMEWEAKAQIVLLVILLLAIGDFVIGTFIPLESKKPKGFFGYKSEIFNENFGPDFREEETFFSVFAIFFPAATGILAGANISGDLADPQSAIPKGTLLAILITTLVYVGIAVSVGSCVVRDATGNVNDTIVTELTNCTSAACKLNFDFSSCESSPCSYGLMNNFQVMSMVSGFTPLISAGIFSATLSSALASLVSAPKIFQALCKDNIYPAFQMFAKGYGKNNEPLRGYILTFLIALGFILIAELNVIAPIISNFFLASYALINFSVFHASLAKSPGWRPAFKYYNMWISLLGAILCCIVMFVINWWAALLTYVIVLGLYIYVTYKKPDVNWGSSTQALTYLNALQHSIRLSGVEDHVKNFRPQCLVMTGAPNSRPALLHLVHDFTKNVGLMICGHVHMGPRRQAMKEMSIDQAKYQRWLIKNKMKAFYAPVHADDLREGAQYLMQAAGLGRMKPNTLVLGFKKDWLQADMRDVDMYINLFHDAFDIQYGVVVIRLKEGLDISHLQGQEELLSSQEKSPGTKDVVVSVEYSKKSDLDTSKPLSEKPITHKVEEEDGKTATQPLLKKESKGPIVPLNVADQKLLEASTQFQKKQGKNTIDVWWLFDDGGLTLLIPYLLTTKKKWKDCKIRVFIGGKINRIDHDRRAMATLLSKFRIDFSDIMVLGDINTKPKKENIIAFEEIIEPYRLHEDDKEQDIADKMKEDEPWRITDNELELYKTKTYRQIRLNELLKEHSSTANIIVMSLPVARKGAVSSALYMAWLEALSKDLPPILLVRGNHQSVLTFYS
Nature of the test: NKCC1-mediated K+ influx (83Rb tracer uptake) in native HEK293 cells, hypertonic saline, 100 μM ouabain. It is filed as cell-based. The conditions noted are these: HEK293, no drug = 1000, 20 μM bumetanide = 0; for inhibition at 2 µM: read-out: NKCC1 mediated flux inhibition at 2 μM (%); for inhibition at 20 µM: read-out: NKCC1 mediated flux inhibition at 20 μM (%). In a few lines: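 Native cells in slightly hypertonic saline with 100 μM ouabain; 15 min preincubation then 15 min 83Rb uptake (0.25 μCi/mL), scintillation counting normalized to protein. Compounds at 2 μM and 20 μM; flux scaled 1000 (no drug) to 0 (20 μM bumetanide), triplicate dishes.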

SMILES strings stand for the structures. Bounds are passed on as bounds.

Take `CCCCNc1cc(C(=O)O)cc(S(=N)(=O)Nc2ccnnc2)c1Oc1ccccc1` (stereo not drawn) [Compound 93, 3-(butylamino)-4-phenoxy-5-[(pyridazin-4-ylamino)sulfonimidoyl]benzoic acid]: the inhibition at 2 µM was 30 to 50% and the inhibition at 20 µM was not below 75%. The like results for `CCCCNc1cc(C(=O)O)cc(S(=N)(=O)NCCCC)c1Oc1ccccc1` (stereo not drawn) [Compound 94, 3-(butylamino)-5-(butylaminosulfonimidoyl)-4-phenoxy-benzoic acid] were, in that order, 50 to 75% and not below 75%. With `CCCCNc1cc(C(=O)O)cc(S(=N)(=O)NC23CC(C2)C3)c1Oc1ccccc1` (stereo not drawn) [Compound 95, 3-[(1-bicyclo[1.1.1]pentanylamino)sulfonimidoyl]-5-(butylamino)-4-phenoxy-benzoic acid], the inhibition at 2 µM was in the range of 30 to 50% and the inhibition at 20 µM was in the range of 30 to 50%. Take `CCCCNc1cc(C(=O)O)cc(S(=N)(=O)NC2CN3CCC2CC3)c1Oc1ccccc1` (stereo not drawn) [Compound 96, 3-(butylamino)-4-phenoxy-5-[(quinuclidin-3-ylamino)sulfonimidoyl]benzoic acid]: the inhibition at 2 µM is 30 to 50% and the inhibition at 20 µM lay within 30 to 50%. For the compound `CCCCNc1cc(C(=O)O)cc(S(=N)(=O)NCC2CCN(C(C)=O)CC2)c1Oc1ccccc1` (stereo not drawn) [Compound 97, 3-[[(1-acetyl-4-piperidyl)methylamino]sulfonimidoyl]-5-(butylamino)-4-phenoxy-benzoic acid], the inhibition at 2 µM is 30 to 50% and the inhibition at 20 µM is not below 75%.

With `CCCCNc1cc(C(=O)OC)cc(S(=O)(=Nc2ccccc2)N2CCCCCC2)c1Oc1ccccc1` (stereo not drawn) [Compound 99, methyl 3-[S-(azepan-1-yl)-N-phenyl-sulfonimidoyl]-5-(butylamino)-4-phenoxy-benzoate], the inhibition at 2 µM was in the range of 30 to 50% and the inhibition at 20 µM was 10 to 30%. Take `CCCCNc1cc(C(=O)O)cc(S(=O)(=NC)N(C)CC)c1Oc1ccccc1` (stereo not drawn) [Compound 100, 3-(butylamino)-5-[S-[ethyl(methyl)amino]-N-methyl-sulfonimidoyl]-4-phenoxybenzoic acid]: the inhibition at 20 µM is 30 to 50%. As to `CCCCNc1cc(C(=O)O)cc(S(=O)(=Nc2ccccc2)N2CCCCCC2)c1Oc1ccccc1` (stereo not drawn) [Compound 101, 3-[S-(azepan-1-yl)-N-phenyl-sulfonimidoyl]-5-(butylamino)-4-phenoxy-benzoic acid], the inhibition at 2 µM was in the range of 10 to 30% and the inhibition at 20 µM lay within 10 to 30%. With `CCCCNc1cc(C(=O)NC)cc(S(=N)(=O)NCc2ccccc2)c1Oc1ccccc1` (stereo not drawn) [Compound 102, 3-[(benzylamino)sulfonimidoyl]-5-(butylamino)-N-methyl-4-phenoxy-benzamide], the inhibition at 20 µM fell in the range of 10 to 30%. As to `CCCCNc1cc(C(=O)NC)cc(S(=N)(=O)NCC2CCOCC2)c1Oc1ccccc1` (stereo not drawn) [Compound 103, 3-(butylamino)-N-methyl-4-phenoxy-5-[(tetrahydropyran-4-ylmethylamino)sulfonimidoyl]benzamide], the inhibition at 2 µM was 30 to 50% and the inhibition at 20 µM fell in the range of 50 to 75%. Regarding `CCCCNc1cc(C(=O)NC)cc(S(=N)(=O)Nc2ccccc2)c1Oc1ccccc1` (stereo not drawn) [Compound 104, 3-(anilinosulfonimidoyl)-5-(butylamino)-N-methyl-4-phenoxy-], the inhibition at 2 µM is 30 to 50%. Consider `CCCCNc1cc(C(=O)N(C)C)cc(S(=N)(=O)Nc2ccccc2)c1Oc1ccccc1` (stereo not drawn) [Compound 105, 3-(anilinosulfonimidoyl)-5-(butylamino)-N,N-dimethyl-4-phenoxy-benzamide], for which the inhibition at 2 µM was 30 to 50% and the inhibition at 20 µM was in the range of 10 to 30%. Take `CCCCNc1cc(C(=O)NC2CC2)cc(S(=N)(=O)Nc2ccccc2)c1Oc1ccccc1` (stereo not drawn) [Compound 106, 3-(anilinosulfonimidoyl)-5-(butylamino)-N-cyclopropyl-4-phenoxy-benzamide]: the inhibition at 2 µM lay in the range of 30 to 50%.

On to `CCCCNc1cc(C(=O)NCC2CC2)cc(S(=N)(=O)Nc2ccccc2)c1Oc1ccccc1` (stereo not drawn) [Compound 107, 3-(anilinosulfonimidoyl)-5-(butylamino)-N-(cyclopropylmethyl)-4-phenoxy-benzamide], for which the inhibition at 20 µM was in the range of 10 to 30%. For `CCCCNc1cc(C(=O)NOC)cc(S(=N)(=O)Nc2ccccc2)c1Oc1ccccc1` (stereo not drawn) [Compound 108, 3-(anilinosulfonimidoyl)-5-(butylamino)-N-methoxy-4-phenoxy-benzamide], the inhibition at 2 µM fell in the range of 30 to 50% and the inhibition at 20 µM fell in the range of 30 to 50%. For the compound `CCCCNc1cc(C(=O)NCCOC)cc(S(=N)(=O)Nc2ccccc2)c1Oc1ccccc1` (stereo not drawn) [Compound 109, 3-(anilinosulfonimidoyl)-5-(butylamino)-N-(2-methoxyethyl)-4-phenoxy-benzamide], the inhibition at 20 µM was 10 to 30%. Regarding `CCCCNc1cc(C(=O)NCC(F)F)cc(S(=N)(=O)Nc2ccccc2)c1Oc1ccccc1` (stereo not drawn) [Compound 110, 3-(anilinosulfonimidoyl)-5-(butylamino)-N-(2,2-difluoroethyl)-4-phenoxy-benzamide], the inhibition at 20 µM was 10 to 30%.

Turning to `CCCCNc1cc(C(=O)NCC(F)(F)F)cc(S(=N)(=O)Nc2ccccc2)c1Oc1ccccc1` (stereo not drawn) [Compound 111, 3-(anilinosulfonimidoyl)-5-(butylamino)-N-(2,2,2-trifluoroethyl)-4-phenoxy-benzamide], the inhibition at 20 µM lay in the range of 10 to 30%. `CCCCNc1cc(C(=O)NC)cc(S(=N)(=O)N2Cc3ccccc3C2)c1Oc1ccccc1` (stereo not drawn) [Compound 112, 3-(butylamino)-5-(isoindolin-2-ylsulfonimidoyl)-N-methyl-4-phenoxy-benzamide]: the inhibition at 2 µM fell in the range of 10 to 30%. `CCCCNc1cc(C(=O)NOC)cc(S(=N)(=O)N2Cc3ccccc3C2)c1Oc1ccccc1` (stereo not drawn) [Compound 113, 3-(butylamino)-5-(isoindolin-2-ylsulfonimidoyl)-N-methoxy-4-phenoxy-benzamide]: the inhibition at 2 µM was in the range of 30 to 50% and the inhibition at 20 µM lay in the range of 10 to 30%. The like results for `CCCCNc1cc(C(=O)NCCOC)cc(S(=N)(=O)N2Cc3ccccc3C2)c1Oc1ccccc1` (stereo not drawn) [Compound 114, 3-(butylamino)-5-(isoindolin-2-ylsulfonimidoyl)-N-(2-methoxyethyl)-4-phenoxy-benzamide] were, in that order, 30 to 50% and 10 to 30%. `CCCCNc1cc(C(=O)NCC(F)(F)F)cc(S(=N)(=O)N2Cc3ccccc3C2)c1Oc1ccccc1` (stereo not drawn) [Compound 115, 3-(butylamino)-5-(isoindolin-2-ylsulfonimidoyl)-4-phenoxy-N-(2,2,2-trifluoroethyl)benzamide]: the inhibition at 2 µM fell in the range of 50 to 75% and the inhibition at 20 µM lay within 10 to 30%.

For `CCCCNc1cc(C(=O)NC)cc(S(=N)(=O)NCc2cccc(Cl)c2)c1Oc1ccccc1` (stereo not drawn) [Compound 116, 3-(butylamino)-5-[[(3-chlorophenyl)methylamino]sulfonimidoyl]-N-methyl-4-phenoxy-benzamide], the inhibition at 2 µM was 30 to 50%. In the case of `CCCCNc1cc(C(=O)NOC)cc(S(=N)(=O)NCc2cccc(Cl)c2)c1Oc1ccccc1` (stereo not drawn) [Compound 117, 3-(butylamino)-5-[[(3-chlorophenyl)methylamino]sulfonimidoyl]-N-methoxy-4-phenoxy-benzamide], the inhibition at 2 µM is 30 to 50% and the inhibition at 20 µM lay within 10 to 30%. For the compound `CCCCNc1cc(C(=O)NCCOC)cc(S(=N)(=O)NCc2cccc(Cl)c2)c1Oc1ccccc1` (stereo not drawn) [Compound 118, 3-(butylamino)-5-[[(3-chlorophenyl)methylamino]sulfonimidoyl]-N-(2-methoxyethyl)-4-phenoxy-benzamide], the inhibition at 2 µM lay in the range of 10 to 30% and the inhibition at 20 µM was 10 to 30%. As for `CCCCNc1cc(C(=O)NCC(F)(F)F)cc(S(=N)(=O)NCc2cccc(Cl)c2)c1Oc1ccccc1` (stereo not drawn) [Compound 119, 3-(butylamino)-5-[[(3-chlorophenyl)methylamino]sulfonimidoyl]-4-phenoxy-N-(2,2,2-trifluoroethyl)benzamide], the inhibition at 2 µM fell in the range of 10 to 30% and the inhibition at 20 µM fell in the range of 10 to 30%.

For orientation: inhibition means the drop in the measured response relative to a control, in per cent.
